In patent publication US20160102099A1, “ANTI-VIRAL COMPOUNDS” (Kineta, Inc., priority 2011, published 2016):
Entries after “also recorded” stand apart in the source; their conditions may differ.

What was measured:
IFNβ promoter = experiment: Luciferase reporter assay, IFNβ promoter; format: cell-based; conditions: stably transfected human cells, 18-20 hours with compound, FIG. 1A
Protocol: (§1) Luciferase Assay to Identify Active Compounds. Cultured human cells that were stably transfected with luciferase reporter gene driven by RIG-I responsive promoter (IFNβ, ISG56, or ISG54 promoter) were seeded and allowed to grow overnight. The compound “KIN2000” was then added and cells were grown in the presence of KIN2000 for 18-20 hours. Steady-Glo luciferase substrate (Promega) was added and luminescence was read on a luminometer (Berthold).

ISG56 promoter = experiment: Luciferase reporter assay, ISG56 promoter; format: cell-based; conditions: stably transfected human cells, 18-20 hours with compound, FIG. 1A
Protocol: as §1

ISG54 promoter = experiment: Luciferase reporter assay, ISG54 promoter; format: cell-based; conditions: stably transfected human cells, 18-20 hours with compound, FIG. 1A
Protocol: as §1

β-actin promoter = experiment: Actin counterscreen (β-actin-luciferase reporter); format: cell-based, human; conditions: specificity counterscreen, FIG. 1B
HeLa cells = experiment: MTS assay to determine cytotoxicity; format: cell-based, human; conditions: 48 hours, 0, 1, 5, 10 and 20 μM, FIG. 1C
Protocol: MTS Assay to Determine Cytotoxicity. Cultured human HeLa cells were treated with increasing amounts of compound or equivalent amounts of DMSO diluted in media for 48 hours to see their effect on cell viability. The proportion of viable cells was calculated using a cell viability assay that measures conversion of a tetrazolium compound (3-(4,5-dimethyl-2-yl)-5-(3-carboxymethoxyphenyl)-2-(4-sulfophenyl)-2H-tetrazolium, inner salt; the MTS assay) to a colored formazan compound in live cells. The conversion of MTS to formazan was detected in a 96-well microtiter plate reader, and the resulting optical densities could then be plotted directly to estimate cell viability. CELLTITER 96® AQueous One Solution Cell (Promega) was the one-step assay used, according to the manufacturer's protocol, and cells were incubated for three hours in the presence of reagent before O.D. reading was done. KIN2000 was diluted to final concentrations of 0, 1, 5, 10, and 20 μM in media containing 0.5% DMSO. Negative control wells contained no compound, and positive control for cytotoxicity was examined using an EMCV infection which causes 100% cytopathic effect. Each compound concentration and control was done in triplicate wells.

IRF-3 = experiment: Immunofluorescent cytochemistry assay, IRF-3 activation and translocation to the nucleus; format: cell-based, human; conditions: U2OS cells (method) / HeLa cells (figure legend), 20 hours, increasing amounts, FIG. 2A
Protocol: Immunofluorescent Cytochemistry Assay to Determine IRF-3 Activation and Translocation to the Nucleus.
The induction of ISG expression mediated by RIG-I is conferred by phosphorylation, dimerization, and nuclear translocation of the IRF-3 transcription factor. Cultured human U2OS cells were treated with increasing amounts of compound or equivalent amounts of DMSO diluted in media for 20 hours. Positive control wells were infected with 100 HA/mL Sendai virus for an equivalent time period. IRF-3 was detected using polyclonal rabbit serum specific to IRF-3 and a secondary antibody conjugated to DYLIGHT™ 488.
(§2) Quantification of Immunofluorescent Assays.
(§3) 96-well plates containing cultured human cells treated with compound and stained for either IRF-3 or NFκB were scanned and quantified using the ARRAYSCAN® instrument and software (Cellomics). Activation of transcription factor is evidenced by increased nuclear intensity normalized for cytoplasmic intensity, or nuclear-cytoplasmic difference.

NFκB = experiment: Immunofluorescent cytochemistry assay, NFκB activation; format: cell-based, human; conditions: HeLa cells, 20 hours, increasing amounts, FIG. 2B
Protocol: Immunofluorescent Cytochemistry Assay to Determine NFκB Activation.
The innate immune response dependent on RIG-I also activates the NFκB transcription factor and thus increases nuclear levels. Cultured human HeLa cells were treated with increasing amounts of compound or equivalent amounts of DMSO diluted in media for 20 hours. Positive control wells were infected with 100 HA/mL Sendai virus for an equivalent time period. NFκB was detected using, in this example, monoclonal mouse antibody specific to the p65 subunit of NFκB and a secondary antibody conjugated to DyLight 488.
as §2, §3

[1] = tested on: human primary dendritic cells; experiment: Ex vivo cytokine expression in primary dendritic cells (Luminex/MAGPIX); format: cell-based; conditions: dendritic cells, 0, 1 or 10 μM, 24 hours, supernatant, FIG. 3
Protocol: The activity of KIN2000 in primary immune cells was assayed to determine whether KIN2000 stimulates immune responses. In this example, cultured human primary dendritic cells were treated with 0, 1, or 10 μM of KIN2000 for 24 hours. Supernatant from treated wells was isolated and tested for levels of cytokine protein. Cytokines were detected using specific antibodies conjugated to magnetic beads and a secondary antibody that reacts with Streptavidin/Phycoerythrin to produce a fluorescent signal. The bound beads were detected and quantified using the MAGPIX® instrument (LUMINEX®) in this Example, but a similar technique can also be used to measure fluorescent protein production, such as an ELISA.

- induction of IFNβ-luciferase reporter gene (IFNβ promoter): dose-dependent induction
- induction of ISG56-luciferase reporter gene (ISG56 promoter): dose-dependent induction
- induction of ISG54-luciferase reporter gene (ISG54 promoter): dose-dependent induction
Structure (SMILES): Cn1c(=O)c2c(SCc3cccc(C(F)(F)F)c3)nc(-c3ccco3)nc2n(C)c1=O [KIN2000]
- induction of non-specific β-actin promoter (luciferase reporter) (β-actin promoter): did not induce; also recorded: does not induce
- cytotoxicity (MTS cell viability) (HeLa cells): no evident cytotoxicity; also recorded: did not show evident cytotoxicity
- IRF-3 translocation to the nucleus (nuclear-cytoplasmic difference) (IRF-3): dose dependent increase; also recorded: dose-dependent increase
- NFκB translocation (nuclear-cytoplasmic difference) (NFκB): dose dependent increase; also recorded: dose-dependent increase
- IL-8 expression [1]: induce expression; also recorded: dose-dependent expression
- MCP-1 (CCL2) expression [1]: induce expression; also recorded: dose-dependent expression
- MIP-1α (CCL3) expression [1]: induce expression; also recorded: dose-dependent expression
- MIP-1β (CCL4) expression [1]: induce expression; also recorded: dose-dependent expression
